Test results: patent publication US20200338045A1, “ISOINDOLINE COMPOSITIONS AND METHODS FOR TREATING NEURODEGENERATIVE DISEASE” (priority 2017, published 2020)
“Also recorded” adds a separate entry of the source.

Columns and labels:
[1] = system: hippocampal/cortical cultures; assay: Neurogranin expression study in vitro; type: cell-based; details: Aβ42 oligomers 500 nM 1 hr, then CT1812 4.8 nM 24 hr; 21 DIV cultures
Procedure: Neurons were fixed in 3.75% formaldehyde and stained with full-length neurogranin (Abcam catalogue # ab23570, used in combination with novel Ng7 to detect full length neurogranin in Alzheimer's disease patient brain IP; Kvartsberg et al. 2015 Blennow lab), MAP2 (Millipore), and 4G8 (Biolegend) antibodies. Imaging was performed on Cellomics VX automated microscope with a 20×, 0.75 NA objective and analyzed using a compartmental analysis algorithm to measure staining in the nucleus versus cytoplasm.

[2] = Phase 1 MAD CSF concentration of CT1812; type: in vivo, human; details: for receptor occupancy associated with CSF CT1812 levels: extrapolated from transgenic mouse brain; for concentration at 1.5 h: human, cerebrospinal fluid, oral, 1.5 hr post dose, Day 7 to Day 9
Description: CT1812 was quantitated in CSF using a validated LC-MS/MS method.

[3] = Phase 1 MAD safety (adverse events, laboratory, ECG); type: in vivo, human
Procedure: In Part B, healthy young subjects in each cohort received the same dose once daily for 14 days after overnight fasting. Cohort dosing started at 280 mg, followed by 560 mg and 840 mg in subsequent cohorts. In each cohort, eight subjects received drug and two received placebo. A fourth cohort of healthy elderly subjects (≥65 years old) received a 560 mg dose vs. placebo daily for 14 days (seven active, two placebo).
Subjects were dosed in the morning with 240 mL of water after an 8-hour fast, and remained in a semi-reclined position for 1 hour and fasting for 2 hours post-administration, except for the fed cohort in Part A. Subjects in each MAD cohort were confined to the clinical facility from check-in on Day 0 until the pharmacokinetic sample was collected on Day 16, 48 hours after administration of the last dose on Day 14. Subjects returned to the clinical facility for follow-up visits on Days 24 and 35.
Safety variables, including incidence of adverse events (AEs), vital signs, clinical laboratory findings, 12-lead electrocardiographs (ECGs), physical examination, and affective and cognitive measures (Part B only), were summarized for all subjects who received study drug.

[4] = system: neurogranin, Aβ, tau, NFL in CSF; assay: CSF Alzheimer's disease biomarkers by ELISA (COG0102); type: in vivo, human; details: for neurogranin reduced: 28 days
Procedure: This trial (ClinicalTrials.gov NCT02907567) was a randomized, double-blind, placebo-controlled clinical trial in mild to moderate Alzheimer's patients (MMSE 18-26) (See FIG. 1 for clinical trial design). The trial was conducted at six sites in Australia. Patients were randomized into placebo (n=5) or CT1812-treated groups: 90 mg (n=4), 280 mg (n=5) or 560 mg (n=5) and treated once daily for 28 days. Clinical chemistry was done at Sydpath (Sydney, AU). Pharmacokinetics were done at CPR Pharma Services (Adelaide, AU). Cerebrospinal fluid samples were taken at screening and day 21-28 of treatment and aliquoted. Plasma samples were taken at screening or Day 1 (one sample) and day 14-28, then spun down to separate plasma and aliquoted. One set of CSF samples was analyzed for Alzheimer's disease biomarkers; protein measurements (Aβ42, A1340, total tau, tau phosphorylated at threonine 181 (phosphorylated tau), NFL and neurogranin) were performed using commercially available ELISA assays from Fujirebio according to the manufacturer's instructions (INNOTEST β-AMYLOID(1-42), INNOTEST β-AMYLOID(1-40), INNOTEST hTau Ag, INNOTEST PHOSPHO-TAU(181P), Uman Diagnostics NFL assay). Neurogranin was measured with a sandwich ELISA method using antibodies Ng2 and Ng22 developed at the University of Gotteborg (Kvartsberg et al. 2015). Identical aliquots of CSF, and plasma were analyzed for protein expression changes via LC/MSMS at Caprion (see below).

[5] = MAD, 280 mg, Age ≤64 yrs (n = 8)
[6] = MAD, 560 mg, Age ≤64 yrs (n = 8)
[7] = MAD, 560 mg, Age ≥65 years (n = 7)
[8] = MAD, 840 mg, Age ≤64 yrs (n = 8)

With `CC(C)(C)Oc1cc(CCC(C)(C)N2Cc3ccc(S(C)(=O)=O)cc3C2)ccc1O` [CT1812] the “full length neurogranin protein expression in neurons” value [1] was “restores neurogranin expression”, the “receptor occupancy associated with CSF CT1812 levels” value ([2]; 560 mg dose) was 95% and the “projected receptor occupancy at average CSF concentrations” value ([2]; 560 mg-840 mg dose range, 1.5 hr post-dose, equivalent mouse brain concentration) was 97-98%. For the same compound, the “receptor occupancy associated with CSF CT1812 levels” value ([2]; 840 mg dose) was 98%, the “CSF CT1812 concentration vs dose” value ([2]; MAD 560 and 840 mg, at peak plasma concentrations) was “dose-dependent manner; also recorded: dose-dependent increases” and the “blood-brain barrier penetration in humans” value ([2]; from CT1812 levels in CSF) was “penetrates the blood-brain barrier”. The concentration at 1.5 h ([2]; 560 mg daily) was 8 ng/mL, the concentration at 1.5 h ([2]; 840 mg daily) was 23.3 ng/mL and the vomiting incidence ([3]; 840 mg dose, two instances) was 25%. The “serious AE (SAE)” value ([3]; 840 mg, respiratory picornavirus infection deemed unrelated to study treatment) was “One serious AE”, the “tolerability, multiple dose” value ([3]; 280 to 840 mg QD 14 days (young), 560 mg (elderly)) was “safe and well tolerated” and the “ECG parameters or changes” value ([3]; MAD) was “No ECG parameters or changes were assessed as clinically significant”. The “Number of Subjects with at least one Treatment-Emergent AE: All TEAEs” value (shortened to “Number of Subjects … All TEAEs”) [3, 5] was 7, the “Number of Subjects with at least one Treatment-Emergent AE: Dizziness” value (from here on “Number of Subjects … Dizziness”) [3, 5] was 1 and the “Number of Subjects with at least one Treatment-Emergent AE: Dyspepsia” value (“Number of Subjects … Dyspepsia” for short) [3, 5] was 1. For the same compound, the “Number of Subjects with at least one Treatment-Emergent AE: Headache” value (“Number of Subjects … Headache” for short) [3, 5] was 2, the “Number of Subjects with at least one Treatment-Emergent AE: Nausea” value (“Number of Subjects … Nausea” below) [3, 5] was 1 and the “Number of Subjects with at least one Treatment-Emergent AE: Upper respiratory tract infection” value (“Number … Upper respiratory tract infection” for short) [3, 5] was 5. The “Subjects (%) with at least one Treatment-Emergent AE: All TEAEs” value (“Subjects (%) … All TEAEs” for short) [3, 5] was “(88%)”, the “Subjects (%) with at least one Treatment-Emergent AE: Dizziness” value (shortened to “Subjects (%) … Dizziness”) [3, 5] was “(13%)” and the “Subjects (%) with at least one Treatment-Emergent AE: Dyspepsia” value (“Subjects (%) … Dyspepsia” below) [3, 5] was “(13%)”. The “Subjects (%) with at least one Treatment-Emergent AE: Headache” value (from here on “Subjects (%) … Headache”) [3, 5] was “(25%)”, the “Subjects (%) with at least one Treatment-Emergent AE: Nausea” value (from here on “Subjects (%) … Nausea”) [3, 5] was “(13%)” and the “Subjects (%) with at least one Treatment-Emergent AE: Upper respiratory tract infection” value (“Subjects (%) … Upper respiratory tract infection” below) [3, 5] was “(63%)”. The “Number of Subjects … All TEAEs” value [3, 6] was 7, the “Number of Subjects with at least one Treatment-Emergent AE: Catheter site phlebitis” value (from here on “Number of Subjects … Catheter site phlebitis”) [3, 6] was 1 and the “Number of Subjects … Dyspepsia” value [3, 6] was 1. The “Number of Subjects … Headache” value [3, 6] was 1, the “Number of Subjects with at least one Treatment-Emergent AE: Procedural pain” value (shortened to “Number of Subjects … Procedural pain”) [3, 6] was 4 and the “Number … Upper respiratory tract infection” value [3, 6] was 1. The “Subjects (%) … All TEAEs” value [3, 6] was “(88%)”, the “Subjects (%) with at least one Treatment-Emergent AE: Catheter site phlebitis” value (“Subjects (%) … Catheter site phlebitis” below) [3, 6] was “(13%)” and the “Subjects (%) … Dyspepsia” value [3, 6] was “(13%)”. For the same compound, the “Subjects (%) … Headache” value [3, 6] was “(13%)”, the “Subjects (%) with at least one Treatment-Emergent AE: Procedural pain” value (“Subjects (%) … Procedural pain” below) [3, 6] was “(50%)” and the “Subjects (%) … Upper respiratory tract infection” value [3, 6] was “(13%)”. For the same compound, the “Number of Subjects … All TEAEs” value [3, 7] was 5, the “Number of Subjects with at least one Treatment-Emergent AE: Back pain” value (“Number of Subjects … Back pain” below) [3, 7] was 1 and the “Number of Subjects … Dizziness” value [3, 7] was 1. For the same compound, the “Number of Subjects … Headache” value [3, 7] was 3, the “Subjects (%) … All TEAEs” value [3, 7] was “(71%)” and the “Subjects (%) with at least one Treatment-Emergent AE: Back pain” value (“Subjects (%) … Back pain” below) [3, 7] was “(14%)”. For the same compound, the “Subjects (%) … Dizziness” value [3, 7] was “(14%)”, the “Subjects (%) … Headache” value [3, 7] was “(43%)” and the “Number of Subjects … All TEAEs” value [3, 8] was 6. For the same compound, the “Number of Subjects … Back pain” value [3, 8] was 1, the “Number of Subjects … Catheter site phlebitis” value [3, 8] was 1 and the “Number of Subjects … Dizziness” value [3, 8] was 1. For the same compound, the “Number of Subjects … Dyspepsia” value [3, 8] was 1, the “Number of Subjects … Headache” value [3, 8] was 4 and the “Number of Subjects … Nausea” value [3, 8] was 1. The “Number of Subjects … Procedural pain” value [3, 8] was 2, the “Number … Upper respiratory tract infection” value [3, 8] was 2 and the “Number of Subjects with at least one Treatment-Emergent AE: Vomiting” value [3, 8] was 2. The “Subjects (%) … All TEAEs” value [3, 8] was “(75%)”, the “Subjects (%) … Back pain” value [3, 8] was “(13%)” and the “Subjects (%) … Catheter site phlebitis” value [3, 8] was “(13%)”. For the same compound, the “Subjects (%) … Dizziness” value [3, 8] was “(13%)”, the “Subjects (%) … Dyspepsia” value [3, 8] was “(13%)” and the “Subjects (%) … Headache” value [3, 8] was “(50%)”. For the same compound, the “Subjects (%) … Nausea” value [3, 8] was “(13%)”, the “Subjects (%) … Procedural pain” value [3, 8] was “(25%)” and the “Subjects (%) … Upper respiratory tract infection” value [3, 8] was “(25%)”. The “Subjects (%) with at least one Treatment-Emergent AE: Vomiting” value [3, 8] was “(25%)”, the “Treatment-emergent AEs, % of subjects” value ([3]; MAD, CT1812 (of 31 subjects)) was 81% and the “Treatment-emergent AEs, number of subjects” value ([3]; MAD, CT1812 (of 31 subjects)) was 25. The “Number of Subjects … All TEAEs” value ([3]; MAD, Total Active (n = 31)) was 25, the “Number of Subjects … Back pain” value ([3]; MAD, Total Active (n = 31)) was 2 and the “Number of Subjects … Catheter site phlebitis” value ([3]; MAD, Total Active (n = 31)) was 2. The “Number of Subjects … Dizziness” value ([3]; MAD, Total Active (n = 31)) was 3, the “Number of Subjects … Dyspepsia” value ([3]; MAD, Total Active (n = 31)) was 3 and the “Number of Subjects … Headache” value ([3]; MAD, Total Active (n = 31)) was 10. The “Number of Subjects … Nausea” value ([3]; MAD, Total Active (n = 31)) was 2, the “Number of Subjects … Procedural pain” value ([3]; MAD, Total Active (n = 31)) was 6 and the “Number … Upper respiratory tract infection” value ([3]; MAD, Total Active (n = 31)) was 8. For the same compound, the “Number of Subjects with at least one Treatment-Emergent AE: Vomiting” value ([3]; MAD, Total Active (n = 31)) was 2, the “Subjects (%) … All TEAEs” value ([3]; MAD, Total Active (n = 31)) was “(%81)” and the “Subjects (%) … Back pain” value ([3]; MAD, Total Active (n = 31)) was “(6%)”. For the same compound, the “Subjects (%) … Catheter site phlebitis” value ([3]; MAD, Total Active (n = 31)) was “(6%)”, the “Subjects (%) … Dizziness” value ([3]; MAD, Total Active (n = 31)) was “(10%)” and the “Subjects (%) … Dyspepsia” value ([3]; MAD, Total Active (n = 31)) was “(10%)”. The “Subjects (%) … Headache” value ([3]; MAD, Total Active (n = 31)) was “(32%)”, the “Subjects (%) … Nausea” value ([3]; MAD, Total Active (n = 31)) was “(6%)” and the “Subjects (%) … Procedural pain” value ([3]; MAD, Total Active (n = 31)) was “(19%)”. The “Subjects (%) … Upper respiratory tract infection” value ([3]; MAD, Total Active (n = 31)) was “(26%)”, the “Subjects (%) with at least one Treatment-Emergent AE: Vomiting” value ([3]; MAD, Total Active (n = 31)) was “(6%)” and the rash ([3]; MAD, improved after discontinuing CT1812) was “One subject developed a rash”. For the same compound, the “increase in liver function tests” value ([3]; four subjects in MAD study (including one on placebo)) was “below 3 × the upper limit of normal”, the neurogranin reduced ([4]; 90 mg dose group) was 33% and the “Neurogranin, With CT1812” value ([4]; ELISA, direction of change) was “reduced and decreased and ↓*”. The “Aβ, tau and NFL biomarker levels” value ([4]; before and after treatment) was “remain unchanged” and the neurogranin reduced ([4]; pooled CT1812-treated group) was 17.6%.
